This note sets out measurements from ChEMBL document CHEMBL5038658, “Structure-Activity Relationship of 3-Methylcytidine-5'-α,β-methylenediphosphates as CD73 Inhibitors” (J Med Chem, 2022).

Usually Ki stands for the equilibrium dissociation constant of an inhibitor or competing ligand from its target. The inhibition is the percentage by which the read-out fell short of the control.

The source made the active and inactive calls. The rule behind the calls is not given here.

For test [1], the target named is T1, 5'-nucleotidase (Homo sapiens, UniProt P21589). The test is described as follows: Inhibition of human soluble CD73 assessed as inhibition constant.
Test [2] has as its target T1, 5'-nucleotidase. The test is described as follows: Inhibition of human soluble CD73 at 0.03 to 50000 nM relative to control. The note with it: dose 0.03-50000 nM.
The target of test [3] is T1, 5'-nucleotidase. Nature of the test: Inhibition of 5'-Nucleotidase activity in human HN-SCC cells assessed as reduction in tumor CD73 catalytic activity incubated for 45 mins in presence of Pb(NO3)2 by […] based assay. It is filed as cell-based. The note with it: dose 50-250 nM.
The target of test [4] is T1, 5'-nucleotidase. The test is described as follows: Inhibition of 5'-Nucleotidase activity in human tonsils assessed as reduction in CD73 catalytic activity in tonsils incubated for 45 mins in presence of Pb(NO3)2 by […] based assay. Format: tissue-based. The note with it: Tonsil, dose 50-250 nM.

T1 sequence (P21589 whole entry): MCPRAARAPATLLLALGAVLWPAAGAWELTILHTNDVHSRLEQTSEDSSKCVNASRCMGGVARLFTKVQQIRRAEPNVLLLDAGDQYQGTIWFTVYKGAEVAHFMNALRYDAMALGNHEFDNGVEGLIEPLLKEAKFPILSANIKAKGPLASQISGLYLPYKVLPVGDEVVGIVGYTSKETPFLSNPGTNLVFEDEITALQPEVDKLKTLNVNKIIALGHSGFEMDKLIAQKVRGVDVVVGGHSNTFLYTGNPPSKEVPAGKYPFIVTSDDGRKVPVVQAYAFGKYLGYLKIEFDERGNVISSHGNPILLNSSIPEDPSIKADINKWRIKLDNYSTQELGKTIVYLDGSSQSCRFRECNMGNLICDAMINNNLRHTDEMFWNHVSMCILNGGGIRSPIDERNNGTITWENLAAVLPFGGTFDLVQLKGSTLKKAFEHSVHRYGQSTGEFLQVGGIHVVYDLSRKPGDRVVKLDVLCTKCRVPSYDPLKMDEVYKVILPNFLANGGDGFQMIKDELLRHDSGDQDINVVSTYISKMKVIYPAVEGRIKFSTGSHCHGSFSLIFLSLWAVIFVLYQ

As for `Cn1c(=O)n([C@@H]2O[C@H](COP(=O)(O)CP(=O)(O)O)[C@@H](O)[C@H]2O)cc/c1=N/OCc1ccc(C(=O)NCCC(=O)O)cc1`, the Ki on 5'-nucleotidase [1] turned out to be 2.61 nM. Take `O=c1ccn([C@H]2[C@H](O)[C@H](O)[C@]3(COP(=O)(O)CP(=O)(O)O)C[C@H]23)c(=O)[nH]1`: at 5'-nucleotidase [1], the Ki was more than 50000 nM. At 5'-nucleotidase [2], this molecule had an inhibition of 28%. With `Cn1c(=O)n([C@@H]2O[C@H](COP(=O)(O)CP(=O)(O)O)[C@@H](O)[C@H]2O)cc/c1=N/OCc1ccc(C(=O)O)cc1`, the inhibition constant (Ki) on 5'-nucleotidase [1] was 14.1 nM.

As for `Cn1c(=O)n([C@@H]2O[C@H](COP(=O)(O)CP(=O)(O)O)[C@@H](O)[C@H]2O)cc/c1=N/OCc1ccc(S(F)(F)(F)(F)F)cc1`, at 5'-nucleotidase [1], the Ki was 0.511 nM. Also, the inhibition entry at 5'-nucleotidase [3] and on 5'-nucleotidase [4] was “Dose-Dependent Effect” each time. As to `Cn1c(=O)n([C@@H]2O[C@H](COP(=O)(O)CP(=O)(O)O)[C@@H](O)[C@H]2O)cc/c1=N/C(=O)NCc1ccccc1`, the Ki on 5'-nucleotidase [1] is 71.5 nM. Same read-out and setting: the result for `Cn1c(=O)n([C@@H]2O[C@H](COP(=O)(O)CP(=O)(O)O)[C@@H](O)[C@H]2O)cc/c1=N/OCc1cccc(Cl)c1` reads 1.58 nM; that for `Cn1c(=O)n([C@@H]2O[C@H](COP(=O)(O)CP(=O)(O)O)[C@@H](O)[C@H]2O)cc/c1=N/OCc1ccc(Br)cc1`, 0.441 nM. Still for that read-out and setting: for `Cn1c(=O)n([C@@H]2O[C@H](COP(=O)(O)CP(=O)(O)O)[C@@H](O)[C@H]2O)cc/c1=N/OCc1ccccc1Cl` the value was 1.63 nM. For `Cn1c(=O)n([C@@H]2O[C@H](COP(=O)(O)CP(=O)(O)O)[C@@H](O)[C@H]2O)cc/c1=N/OCc1ccc(C(=O)NCCN)cc1`, the Ki at 5'-nucleotidase [1] amounted to 0.626 nM. Still for that read-out and setting: for `Cn1c(=O)n([C@@H]2O[C@H](COP(=O)(O)CP(=O)(O)O)[C@@H](O)[C@H]2O)cc/c1=N/OCc1ccc(C(=O)NCCCCN)cc1` the value was 1.78 nM; for `CCc1ccc(CO/N=c2/ccn([C@@H]3O[C@H](COP(=O)(O)CP(=O)(O)O)[C@@H](O)[C@H]3O)c(=O)n2C)cc1`, 3.5 nM; for `Cn1c(=O)n([C@@H]2O[C@H](COP(=O)(O)CP(=O)(O)O)[C@@H](O)[C@H]2O)cc/c1=N/OCc1ccc(C(N)=O)cc1`, 1.76 nM. As to `Cn1c(=O)n([C@H]2[C@H](O)[C@H](O)[C@]3(COP(=O)(O)CP(=O)(O)O)C[C@H]23)cc/c1=N/OCc1ccc(Cl)cc1`, at 5'-nucleotidase [1], the Ki turned out to be 59.2 nM. Still for that read-out and setting: for `O=c1[nH]c(=O)n([C@@H]2O[C@H](COP(=O)(O)CP(=O)(O)O)[C@@H](O)[C@H]2O)cc1F` the value was 2540 nM. The same measure, in the same setting: the result for `Cc1ccc(CO/N=c2/ccn([C@@H]3O[C@H](COP(=O)(O)CP(=O)(O)O)[C@@H](O)[C@H]3O)c(=O)n2C)cc1` reads 0.894 nM; that for `Cn1c(=O)n([C@@H]2O[C@H](COP(=O)(O)CP(=O)(O)O)[C@@H](O)[C@H]2O)cc/c1=N/OCc1ccc(F)cc1`, 1.14 nM. For `Cn1c(=O)n([C@@H]2O[C@H](COP(=O)(O)CP(=O)(O)O)[C@@H](O)[C@H]2O)cc/c1=N/OCc1ccc(I)cc1`, at 5'-nucleotidase [1], the Ki is 0.436 nM. In addition, the inhibition result on 5'-nucleotidase [3] and on 5'-nucleotidase [4] was “Dose-Dependent Effect” throughout. `COC(=O)c1ccc(CO/N=c2/ccn([C@@H]3O[C@H](COP(=O)(O)CP(=O)(O)O)[C@@H](O)[C@H]3O)c(=O)n2C)cc1`: at 5'-nucleotidase [1], the Ki worked out at 0.848 nM. With `Cn1c(=O)n([C@@H]2O[C@H](COP(=O)(O)CP(=O)(O)O)[C@@H](O)[C@H]2O)cc/c1=N/OCc1cccc(C(F)(F)F)c1`, the Ki at 5'-nucleotidase [1] turned out to be 1.27 nM. Take `Nc1ncnc2c1ncn2[C@@H]1O[C@H](COP(=O)(O)CP(=O)(O)O)[C@@H](O)[C@H]1O`: the inhibition result at 5'-nucleotidase [3] and on 5'-nucleotidase [4] was “inactive” in each case. With `Cn1c(=O)n([C@@H]2O[C@H](COP(=O)(O)CP(=O)(O)O)[C@@H](O)[C@H]2O)cc/c1=N/OCc1ccc(C(F)(F)F)cc1`, the Ki at 5'-nucleotidase [1] is 1.08 nM. The same measure, in the same setting: the result for `CCOC(=O)CCNC(=O)c1ccc(CO/N=c2/ccn([C@@H]3O[C@H](COP(=O)(O)CP(=O)(O)O)[C@@H](O)[C@H]3O)c(=O)n2C)cc1` reads 2.51 nM.
